Experimental data taken from patent US10363239B2, “Method for inhibiting growth of cancer cells” (Pain Therapeutics, Inc., priority 2013, dated 2019).
Like-named read-outs stand apart in the source and are kept apart here.

Experiments:
mu opiate receptor (MOR) = test: MOR agonist activity using [35S]GTPγS binding assay in striatal membranes; assay type: biochemical; conditions: Series C-2; for % DAMGO (0.1 μM) / % DAMGO (1 μM): relative to DAMGO; for % DAMGO + BFNA: 1 μM compound + β-FNA, relative to DAMGO + BFNA
In short: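 Striatal membranes (200 μg) were preincubated 5 min at 30 °C in HEPES pH 7.5 with 100 mM NaCl, 1 mM MgCl2 and 0.5 nM [35S]GTPγS, then 5 min more with 0.1–10 μM compound. Gαo was immunoprecipitated and bound radioactivity counted by scintillation.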

[1] = biological target: FLNA pentapeptide of SEQ ID NO: 1 (Bn-VAKGL) (Homo sapiens, UniProt P21333); test: FITC-NLX-based FLNA screening assay (inhibition of FITC-naloxone binding to Bn-VAKGL on streptavidin plates); conditions: 10 nM FITC-NLX
[2] = 0.1 μM compound, [35S]GTPγS binding to Gαo, striatal membranes
[3] = 1 μM compound, [35S]GTPγS binding to Gαo, striatal membranes
[4] = FLNA-binding compound 0.01 μM, read-out: Percent Binding Inhibition
[5] = FLNA-binding compound 0.1 μM, read-out: Percent Binding Inhibition
[6] = FLNA-binding compound 1 μM, read-out: Percent Binding Inhibition
[7] = read-out: Percent Binding Inhibition, FLNA-binding compound 0.01 μM
[8] = read-out: Percent Binding Inhibition, FLNA-binding compound 0.1 μM
[9] = read-out: Percent Binding Inhibition, FLNA-binding compound 1 μM

Row | SMILES | % DAMGO (0.1 μM) (mu opiate receptor (MOR); 0.1 μM compound) [%] | MOR agonist activity, percent [35S]GTPγS binding at the stated compound concentration (mu opiate receptor (MOR); [2]) [%] | MOR agonist activity, percent [35S]GTPγS binding at the stated compound concentration (mu opiate receptor (MOR); 1 μM compound + 1 μM β-FNA) [%] | % DAMGO + BFNA (mu opiate receptor (MOR)) [%] | % DAMGO (1 μM) (mu opiate receptor (MOR); 1 μM compound) [%] | MOR agonist activity, percent [35S]GTPγS binding at the stated compound concentration (mu opiate receptor (MOR); [3]) [%] | inhibition at 0.01 µM [1, 4] [%] | inhibition at 0.1 µM [1, 5] [%] | inhibition at 1 µM [1, 6] [%] | inhibition at 0.01 µM [1, 7] [%] | inhibition at 0.1 µM [1, 8] [%] | inhibition at 1 µM [1, 9] [%]
1 | CC(=O)c1ccc(S(=O)(=O)N2CCOC23CCN(CC2CC2)CC3)cc1 [Compound C0095M] | 107.4 | 189.1 | 107.7 | 489.5 | 88.8 | 224.6 | 40.1 | 46.6 | 50.5 |  |  | 
2 | C=CCN1CCC2(CC1)OCCN2S(=O)(=O)c1ccc(C(C)=O)cc1 [Compound C0096M] | 105.9 | 186.4 | 127.1 | 577.7 | 130.0 | 328.9 | 43 | 48.3 | 55 |  |  | 
3 | CCOC(=O)CN1CCC2(CC1)OCCN2S(=O)(=O)c1ccc(C(C)=O)cc1 [Compound C0099M] | 93.8 | 157.2 | 114.7 | 241.5 | 88.0 | 195.7 | 46.9 | 53.3 | 56 |  |  | 
4 | CC(=O)c1ccc(S(=O)(=O)N2CCOC23CCN(CC(=O)O)CC3)cc1 [Compound C0100M] | 103.6 | 173.6 | 195.6 | 411.8 | 110.6 | 245.9 | 52.2 | 58.2 | 64.5 |  |  | 
5 | CCCCN1CCC2(CC1)OCCN2S(=O)(=O)c1ccc(C(C)=O)cc1 [Compound C0101M] | 82.5 | 138.2 | 174.8 | 368.0 | 123.4 | 274.3 | 50.5 | 56.4 | 59 |  |  | 
6 | CCCCN1CCC2(CC1)OCCN2S(=O)(=O)c1ccc(OC)cc1 [Compound C0102M] | 78.6 | 131.8 | 150.4 | 316.6 | 122.4 | 272.0 | 52.3 | 53.1 | 56.6 |  |  | 
7 | CN1CCC2(CC1)NC(=O)CN2Cc1ccccc1 [Compound C0104M] | 99.5 | 188.2 | 143.8 | 296.5 | 96.3 | 238.9 | 51.4 | 54.1 | 55.2 |  |  | 
8 | CN1CCC2(CC1)NCC(=O)N2Cc1ccccc1 [Compound C0105M] | 104.7 | 198.1 | 73.1 | 150.7 | 88.8 | 220.3 |  |  |  | 55.7 | 62 | 68.8
9 | CN1CCC2(CC1)OCCN2S(=O)(=O)c1ccc(S(C)(=O)=O)cc1 [Compound C0106M] | 102.5 | 171.8 | 117.2 | 246.7 | 108.3 | 240.7 |  |  |  | 45.8 | 55.6 | 58.9
10 | O=C1CNC2(CCNCC2)N1Cc1ccccc1 [Compound C0114M] | 77.6 | 114.0 | 35.9 | 91.3 | 71.4 | 144.3 |  |  |  | 57.1 | 63.2 | 66.7
11 | O=C1CN(Cc2ccccc2)C2(CCNCC2)N1 [Compound C0115M] | 105.7 | 177.2 | 118.4 | 249.3 | 102.0 | 226.8 |  |  |  | 47.8 | 57.8 | 59.9
12 | CS(=O)(=O)c1ccc(S(=O)(=O)N2CCOC23CCNCC3)cc1 [Compound C0116M] | 136.6 | 258.4 | 152.0 | 313.4 | 122.0 | 302.8 |  |  |  | 53.9 | 60 | 62.9
13 | CC(=O)c1ccc(S(=O)(=O)N2CC(CN(C)C)OC23CCNCC3)cc1 (stereo not drawn) [Compound C0118M] | 87.8 | 166.2 | 79.2 | 163.3 | 105.4 | 261.5 |  |  |  | 56.6 | 61.4 | 62.4
14 | CC(=O)c1ccc(S(=O)(=O)N2C(Cc3c[nH]cn3)C(=O)NC23CCNCC3)cc1 (stereo not drawn) [Compound C0119M] | 71.9 | 105.7 | 35.1 | 89.3 | 83.0 | 167.8 |  |  |  | 41.6 | 55.5 | 60
15 | O=C1CN(Cc2ccccc2)C2(CCN(CC3CC3)CC2)N1 [Compound C0125M] | 89.1 | 168.6 | 159.7 | 329.3 | 78.6 | 195.2 |  |  |  | 54.2 | 59.7 | 63.3
